Drawing on patent US7601713B2, “Kinase inhibitors and their uses” (Rigel Pharmaceuticals, Inc., priority 2005, dated 2009), this text covers IC50 for 16 compounds.

The test deals with T1, Axl kinase (Homo sapiens, UniProt P30530).
T1 construct: endogenous in cells; host or cells: HeLa cells
T1 sequence (P30530 26-894): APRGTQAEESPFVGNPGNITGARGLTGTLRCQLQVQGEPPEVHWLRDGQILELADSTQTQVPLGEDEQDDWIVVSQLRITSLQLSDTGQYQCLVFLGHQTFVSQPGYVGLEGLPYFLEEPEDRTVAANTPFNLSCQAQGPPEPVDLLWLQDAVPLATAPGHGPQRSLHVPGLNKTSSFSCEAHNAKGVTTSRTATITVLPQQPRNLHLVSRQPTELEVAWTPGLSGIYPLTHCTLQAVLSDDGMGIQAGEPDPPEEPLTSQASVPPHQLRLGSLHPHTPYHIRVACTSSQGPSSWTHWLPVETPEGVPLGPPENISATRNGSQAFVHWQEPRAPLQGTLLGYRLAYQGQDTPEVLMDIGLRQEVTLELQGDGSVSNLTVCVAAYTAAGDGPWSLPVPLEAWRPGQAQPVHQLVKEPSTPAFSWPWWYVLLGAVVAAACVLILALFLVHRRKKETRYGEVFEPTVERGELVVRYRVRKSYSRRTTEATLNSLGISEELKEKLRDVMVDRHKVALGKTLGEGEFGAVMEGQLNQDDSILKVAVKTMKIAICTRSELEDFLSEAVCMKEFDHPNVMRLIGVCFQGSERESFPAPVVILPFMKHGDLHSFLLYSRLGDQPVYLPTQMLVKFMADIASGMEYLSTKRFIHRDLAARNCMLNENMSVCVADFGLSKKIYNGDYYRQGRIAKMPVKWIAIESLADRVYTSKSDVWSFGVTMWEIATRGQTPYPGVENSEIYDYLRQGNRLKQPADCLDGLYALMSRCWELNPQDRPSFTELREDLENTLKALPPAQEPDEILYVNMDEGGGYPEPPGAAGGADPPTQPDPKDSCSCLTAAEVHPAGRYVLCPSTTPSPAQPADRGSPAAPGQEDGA
Put plainly: Phospho-Akt in-cell Western assay (Axl antibody cross-linking, Hela cells). The format is cell-based. The following applies: phospho-Akt readout, read-out: IC50, inhibition of Axl kinase. The method, then:
The compounds of the invention were tested in the following assay for their ability to inhibit Axl activity.
Phospho-Akt in-Cell Western Assay
Starvation medium: For Axl stimulation: 0.5% FCS (fetal calf serum) in DMEM, plus Axl/Fc (extracellular domain of AXL fused to immunoglobulin Fc region) (R&D, 154-AL) 500 ng/mL.
Axl antibody cross-linking: • 1st: Mouse anti-Axl (R&D, MAB 154). • 2nd: Biotin-SP-conjugated AffiniPure goat anti-mouse IgG (H+L) (Jackson ImmunoResearch #115-065-003).
Primary antibody: Rabbit anti-human Phospho-Akt antibody (Cell Signaling 9271): 1×250 diluted in blocking buffer.
Secondary antibody: HRP (horse radish peroxidase)-conjugated Goat anti-Rabbit secondary, stock solution: Jackson lmmunoResearch (Goat anti-Rabbit HRP, #111-035-144) 1:1 diluted in glycerol, store at −20° C. The working solution: 1×2000 dilution of stock in blocking buffer.
A 96 well TC (tissue culture treated) plate was coated with 10 μg/mL poly-L-Lysine at 37° C. for 30 min, washed twice with PBS, and air-dried for 5 minutes before cells were added. Hela cells were seeded at 10,000 cells/well and the cells were starved in 100 μL starvation medium containing Axl/Fc for 24 hrs.
The cells were pre-treated with test compounds by adding 100 μL of 2× test compound to the starvation medium on the cells. The cells were incubated at 37° C. for 1 hr before stimulation.
The cells were stimulated by Axl-antibody cross-linking as follows: A 5× 1st/2nd Axl antibody mixture was made (37.5 μg/mL 1st/100 μg/mL 2nd) in starvation medium and nutated at 4° C. with thorough mixing for 1-2 hours for clustering. The resulting mix was warmed to 37° C. 50 μL of 5× Axl 1st/2nd of antibody cluster was added to the cells and the cells were incubated at 37° C. for 5 min.
After 5 minutes stimulation, the plate was flicked to remove medium and the plate was tapped onto paper towels. Formaldehyde (4.0% in PBS, 100 μL) was added to fix the cells and the cells were incubated at ambient temperature for 20 min without shaking.
The cells were washed with a plate washer buffer to remove the formaldehyde solution. The plate was flicked to remove excess wash buffer and tapped onto paper towels. Quenching buffer (100 μL) was added to each well and the cells were incubated at ambient temperature for 20 minutes without shaking.
The cells were washed with a plate washer buffer to remove the quenching buffer. Blocking buffer (100 μL) was added and the cells were incubated at ambient temperature for at least an hour with gentle shaking.
The cells were washed with a plate washer buffer and diluted primary antibody (50 μL) was added to each well (blocking buffer was added to the negative control wells instead). The plates were incubated overnight at 4° C. with gentle shaking.
The wash buffer was removed, diluted secondary antibody (100 μL) was added, and the cells were incubated at ambient temperature for 1 hour with gentle shaking. During the incubation, the chemiluminescent reagent was brought to ambient temperature.
The secondary antibody was removed by washing the cells 1× with wash buffer, 1× with PBS by plate washer. The PBS was removed from the plate and the chemiluminescent reagent (80 μL: 40 μL A and 40 μL B) was added to each well at ambient temperature.
The resulting chemiluminescence was read with a Luminomitor within 10 minutes to minimize changes in signal intensity. After reading the chemiluminescence, the cells were washed 1× with wash buffer and 1× with PBS by plate washer. The plate was tapped onto paper towels to remove excess liquid from wells and air-dried at ambient temperature for 5 minutes.
Crystal Violet working solution (60 μL) was added to each well and the cells were incubated at ambient temperature for 30 min. The crystal violet solution was removed, and the wells were rinsed with PBS, then washed 3× with PBS (200 μL) for 5 minutes each.
5% SDS solution (70 μL) was added to each well and the cells were incubated on a shaker for 30 min at ambient temperature. […]
For `Cc1cc(Nc2nc(NC3C4C=CC(C4)C3C(N)=O)c3ccccc3n2)ccc1OCCN1CCCC1` (racemic) [Compound 215, Racemic-(2-exo,3-exo)-N4-(3-aminocarbonylbicyclo [2.2.1]hept-5-en-2-yl)-N2-(3-methyl-4-(2-(1-pyrrolidinyl)ethoxy)phenyl)-2,4-quinazoline-diamine], the IC50 was less than 5 µM. The figure for `NC(=O)C1C2C=CC(C2)C1Nc1nc(Nc2ccc(OCCN3CCCC3)c(Cl)c2)nc2ccccc12` (racemic) [Compound 216, Racemic-(2-exo,3-exo)-N4-(3-aminocarbonylbicyclo [2.2.1]hept-5-en-2-yl)-N2-(3-Chloro-4-(2-(1-pyrrolidinyl)ethoxy)phenyl)-2,4-quinazoline-diamine] is less than 5 µM; for `CCN(CC)C(=O)c1cccc(Nc2nc(NC3C4C=CC(C4)C3C(N)=O)c3cc[nH]c3n2)c1` (racemic) [Compound 222, Racemic-(2-exo,3-exo)-N4-(3-aminocarbonylbicyclo [2.2.1]hept-5-en-2-yl)-N2-(3-N,N-diethyl-aminocarbonyl-phenyl)-1H-pyrrolo[2,3-d]pyrimidine-2,4-diamine] it is less than 5 µM. `CONC(=O)Cc1cccc(Nc2nc(NC3C4C=CC(C4)C3C(N)=O)c3cc[nH]c3n2)c1` (racemic) [Compound 229, Racemic-(2-exo,3-exo)-N4-(3-aminocarbonylbicyclo [2.2.1]hept-5-en-2-yl)-N2-[3-(N-methoxy)-aminocarbonyl-methylphenyl]-1H-pyrrolo[2,3-d]pyrimidine-2,4-diamine]: the IC50 is less than 10 µM.

With `CCOC(=O)C1C2C=CC(C2)C1Nc1nc(Nc2cccc(OC)c2)nc2[nH]ccc12` (racemic) [Compound 232, Racemic-(2-exo,3-exo)-N4-(3-ethoxycarbonylbicyclo [2.2.1]hept-5-en-2-yl)-N2-(3-methoxyphenyl)-1H-pyrrolo[2,3-d]pyrimidine-2,4-diamine], the half-maximal inhibitory concentration (IC50) is less than 10 µM.

Regarding `NC(=O)C1C2C=CC(C2)C1Nc1nc(Nc2ccc(OCCN3CCCC3)cc2)nc2[nH]cnc12` (racemic) [Compound 234], the IC50 is less than 5 µM. The figure for `CNC(=O)[C@H]1C[C@H]2CC(C2(C)C)[C@@]1(C)Nc1nc(Nc2ccc(OCCN3CCCC3)cc2)nc2ccsc12` (stereo in doubt) [Compound 197, (1S,2R,3S,5R)-N,2,6,6-tetramethyl-2-(2-(4-(2-(pyrrolidin-1-yl)ethoxy)phenylamino)thieno[3,2-d]pyrimidin-4-ylamino)bicyclo[3.1.1] heptane-3-carboxamide] is less than 5 µM; for `CNC(=O)[C@H]1CC2CC(C2(C)C)[C@@]1(C)Nc1nc(Nc2ccc(N3CCN(C4CCCCC4)CC3)cc2)nc2ccsc12` (stereo in doubt) [Compound 198, (1S,2R,3S,SR)-2-(2-(4-(4-cyclohexylpiperazin-1-yl)phenylamino)thieno [3,2-d]pyrimidin-4-ylamino)-N,2,6,6-tetramethylbicyclo[3.1.1] heptane-3-carboxamide] it is less than 5 µM; for `NC(=O)C1C2C=CC(C2)C1Nc1nc(Nc2ccc3c(c2)OCCCO3)nc2ccsc12` (stereo not shown) [Compound 182, 3-(2-(3,4-dihydro-2H-benzo[b][1,4]dioxepin-7-ylamino)thieno[3,2-d]pyrimidin-4-ylamino)bicyclo[2.2.1] hept-5-ene-2-carboxamide] it is less than 5 µM.

For the compound `NC(=O)C1C2C=CC(C2)C1Nc1nc(Nc2ccc(OCCN3CCCC3)cc2)nc2c1CCC2` (stereo not shown) [Compound 185, 3-(2-(4-(2-(pyrrolidin-1-yl)ethoxy)phenylamino)-6,7-dihydro-5H-cyclopenta[d]pyrimidin-4-ylamino)bicyclo[2.2.1] hept-5-ene-2-carboxamide], the IC50 is less than 5 µM. The figure for `NC(=O)C1C2C=CC(C2)C1Nc1nc2c(c(Nc3ccc(OCCN4CCCC4)cc3)n1)CN(Cc1ccccc1)CC2` (stereo not shown) [Compound 186, 3-(6-benzyl-4-(4-(2-(pyrrolidin-1-yl)ethoxy)phenylamino)-5,6,7,8-tetrahydropyrido[4,3-d]pyrimidin-2-ylamino)bicyclo[2.2.1] hept-5-ene-2-carboxamide] is less than 5 µM; for `NC(=O)[C@H]1C2C=CC(C2)[C@H]1Nc1nc(Nc2ccc(OCCN3CCCC3)cc2)nc2c1cnn2Cc1ccccc1` (stereo partly drawn) [Compound 189, (2S,3R)-3-(1-benzyl-6-(4-(2-(pyrrolidin-1-yl)ethoxy)phenylamino)-1H-pyrazolo[3,4-d]pyrimidin-4-ylamino)bicyclo[2.2.1] hept-5-ene-2-carboxamide] it is more than 10 µM; for `CCOC(=O)N1CCN(c2ccc(Nc3nc(N[C@@H]4C5C=CC(C5)[C@@H]4C(N)=O)c4sccc4n3)cc2F)CC1` (stereo partly drawn) [Compound 208, ethyl 4-(4-(4-((2R,35)-3-carbamoylbicyclo[2.2. 1]hept-5-en-2-ylamino)thieno[3,2-d]pyrimidin-2-ylamino)-2-fluorophenyl)piperazine-1-carboxylate] it is more than 10 µM. On to `CC1CCN(C2CCN(c3ccc(Nc4nc(N[C@@H]5C6C=CC(C6)[C@@H]5C(N)=O)c5sc(C(F)(F)F)cc5n4)cc3F)CC2)CC1` (stereo partly drawn) [Compound 209, (2S,3R)-3-(2-(3-fluoro-4-(4-methyl-1,4′-bipiperidin-1′-yl)phenylamino)-6-(trifluoromethyl)thieno [3,2-d]pyrimidin-4 ylamino)bicyclo[2.2.1] hept-5-ene-2-carboxamide], for which the IC50 was less than 5 µM. With `NC(=O)[C@H]1C2C=CC(C2)[C@H]1Nc1nc(Nc2ccc(OCCN3CCCC3)cc2)nc2cc(C(F)(F)F)sc12` (stereo partly drawn) [Compound 210, (2S,3R)-3-(2-(4-(2-(pyrrolidin-1-yl)ethoxy)phenylamino)-6-(trifluoromethyl)thieno [3,2-d]pyrimidin-4-ylamino)bicyclo[2.2.1] hept-5-ene-2-carboxamide] the figure was more than 10 µM.

`NC(=O)[C@H]1C2C=CC(C2)[C@H]1Nc1nc(Nc2ccc(C(=O)N3CCN(C4CCCCC4)CC3)cc2)nc2cc(C(F)(F)F)sc12` (stereo partly drawn) [Compound 211, (2S,3R)-3-(2-(4-(4-cyclohexylpiperazine-1-carbonyl)phenylamino)-6-(trifluoromethyl)thieno [3,2-d]pyrimidin-4 ylamino)bicyclo[2.2.1] hept-5-ene-2-carboxamide]: the IC50 was less than 10 µM.

As usually defined, the IC50 is the concentration that gives 50% inhibition.
